# Assays:
# PDX 08-387 cells = experiment: Cell survival, OGM2 with TMZ; type: cell-based, human; conditions: OGM2 and TMZ, cell killing
# Description: GBM neurospheres and low passage PDX models were plated in 96-well plates at 10,000 cells per well in 50 μL of neural stem cell media. The next day, the cells were treated with OGM2 compounds at the indicated concentrations, in triplicates, by adding an equal volume of medium containing 2× the final concentration of compound. Following 72 hours incubation under standard cell culture conditions, relative cell number was assessed using Cell Titer-Glo Luminescent Cell Viability Assay (Promega™) following the manufacturer's instructions. Luminescence was determined using a Cytation 5 reader and Gen5 software package (BioTek™). For U87 and U138 cell lines, one thousand cells were plated per well in a standard 96-well plate and allowed to attach for 24 hours before exposure to concentrations of vehicle, OGM2, or TMZ. Cells were treated for 72 hours and then stained with DAPI. A 10× magnification lens on a LionheartFX (BioTek™) was used to image the wells, and images were stitched together with Gen5 software (BioTek™). Automated nuclei counting was also done using the Gen5 software. Results reported as percent response relative to DMSO control. […]
# Where appropriate, ANOVA, or student's T-test were conducted in PRISM. […] For drug interaction and therapeutic interaction, the coefficient of drug interaction (CDI) was calculated as follows: CDI=AB/(A×B). […]
# A549 = experiment: Acid-induced Mucin-5AC production; type: cell-based, human; conditions: pH 6.4 buffered media, 24 hours
# Description: Lung (A549) cells were plated in 6-well plates. The cells then were rinsed and protein was isolated. Dot blots were made with anti Mucin-5AC antibodies, and an equivalent amount of protein was run on a western blot to detect alpha tubulin. Lung (A549) cells were cultured as above, but in pH 6.4 buffered media with increasing concentrations of OGM2. Mucin5AC and alpha tubulin were detected in the same way.
# In addition. A549 cells were cultured in pH 6.4 medium with or without OGM2 for 24 hours cells were then rinsed and then stained with Periodic Acid Staining solution which detects mucins. FIG. 30E is a schematic of cas9 mediated endogenous tagging of MU5AC genetic locus with nano-luciferase in A549 cells. For FIG. 30F, Muc5ac-Luc cells were cultured in pH 6.4 buffered medium with and without OGM2 for 24 hours. Cell lysates were then assayed for luciferase activity and normalized to untreated control. See results in FIG. 30F.
# ADCK4 = target: T1, ADCK4 (Homo sapiens, UniProt Q96D53); experiment: KinomeScan; type: binding; conditions: read-out: % Control
# T1 construct: purchased DiscoveRx (Fremont, CA)
# BRK = target: T2, BRK (Homo sapiens, UniProt Q13882); experiment: KinomeScan; type: binding; conditions: read-out: % Control
# T2 construct: purchased DiscoveRx (Fremont, CA)
# T2 sequence (Q13882 whole entry): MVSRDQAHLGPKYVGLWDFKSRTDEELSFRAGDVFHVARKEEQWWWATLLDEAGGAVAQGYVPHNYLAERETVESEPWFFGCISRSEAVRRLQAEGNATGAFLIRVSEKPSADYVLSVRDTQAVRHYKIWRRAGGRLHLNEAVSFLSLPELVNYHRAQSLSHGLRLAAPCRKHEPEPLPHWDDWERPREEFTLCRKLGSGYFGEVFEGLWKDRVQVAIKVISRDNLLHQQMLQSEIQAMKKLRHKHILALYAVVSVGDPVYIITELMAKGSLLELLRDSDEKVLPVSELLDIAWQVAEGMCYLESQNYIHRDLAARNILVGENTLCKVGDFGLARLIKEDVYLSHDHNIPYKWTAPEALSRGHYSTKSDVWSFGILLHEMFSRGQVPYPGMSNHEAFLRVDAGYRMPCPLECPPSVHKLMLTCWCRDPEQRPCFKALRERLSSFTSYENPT
# CDC2L1 = target: T3, CDC2L1 (Homo sapiens, UniProt P21127); experiment: KinomeScan; type: binding; conditions: read-out: % Control
# T3 construct: purchased DiscoveRx (KinomeScan service)
# FLT3(ITD) = experiment: KinomeScan; type: binding; conditions: 10 uM
# FLT4 = target: T4, FLT4 (Homo sapiens, UniProt P35916); experiment: KinomeScan; type: binding; conditions: read-out: % Control
# T4 construct: purchased DiscoveRx (Fremont, CA)
# LATS2 = target: T5, LATS2 (Homo sapiens, UniProt Q9NRM7); experiment: KinomeScan; type: binding; conditions: read-out: % Control
# T5 construct: purchased DiscoveRx
# T5 sequence (Q9NRM7 whole entry): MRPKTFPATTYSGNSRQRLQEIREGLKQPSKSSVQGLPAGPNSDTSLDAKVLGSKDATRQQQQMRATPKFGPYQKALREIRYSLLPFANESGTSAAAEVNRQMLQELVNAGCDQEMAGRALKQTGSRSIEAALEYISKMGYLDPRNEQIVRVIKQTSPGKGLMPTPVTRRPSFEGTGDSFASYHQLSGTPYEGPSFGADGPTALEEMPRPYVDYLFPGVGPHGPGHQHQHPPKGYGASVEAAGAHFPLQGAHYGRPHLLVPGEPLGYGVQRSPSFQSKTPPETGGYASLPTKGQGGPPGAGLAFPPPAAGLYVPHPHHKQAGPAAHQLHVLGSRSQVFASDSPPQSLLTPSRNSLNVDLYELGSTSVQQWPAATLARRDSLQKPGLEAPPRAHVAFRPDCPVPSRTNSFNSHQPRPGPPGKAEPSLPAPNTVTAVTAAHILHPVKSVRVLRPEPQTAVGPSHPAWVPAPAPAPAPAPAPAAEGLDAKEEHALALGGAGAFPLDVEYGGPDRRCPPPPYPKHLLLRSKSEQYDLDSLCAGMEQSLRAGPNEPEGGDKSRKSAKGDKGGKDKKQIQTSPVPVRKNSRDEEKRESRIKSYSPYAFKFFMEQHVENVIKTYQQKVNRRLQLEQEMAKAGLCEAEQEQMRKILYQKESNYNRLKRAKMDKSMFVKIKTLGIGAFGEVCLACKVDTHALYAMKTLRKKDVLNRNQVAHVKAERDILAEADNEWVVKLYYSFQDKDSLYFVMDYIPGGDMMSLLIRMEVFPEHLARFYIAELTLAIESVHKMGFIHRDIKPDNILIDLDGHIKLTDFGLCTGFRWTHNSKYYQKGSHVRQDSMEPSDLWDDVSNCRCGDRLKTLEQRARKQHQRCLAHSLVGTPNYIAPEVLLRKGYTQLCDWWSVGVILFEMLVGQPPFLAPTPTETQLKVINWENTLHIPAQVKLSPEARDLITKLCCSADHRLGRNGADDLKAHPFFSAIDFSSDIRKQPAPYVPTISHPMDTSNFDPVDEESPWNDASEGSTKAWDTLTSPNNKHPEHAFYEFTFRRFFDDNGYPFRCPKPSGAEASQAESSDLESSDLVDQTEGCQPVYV
# MAPKAPK2 = target: T6, MAPKAPK2 (Homo sapiens, UniProt P49137); experiment: KinomeScan; type: binding; conditions: read-out: % Control
# T6 construct: purchased DiscoveRx (Fremont, CA)
# MET(M1250T) = target: T7, MET(M1250T) (Homo sapiens, UniProt P08581, M1250T); experiment: KinomeScan; type: binding; conditions: read-out: % Control
# T7 construct: purchased DiscoveRx (Fremont, CA)
# PCTK1 = target: T8, PCTK1 (Homo sapiens, UniProt Q00536); experiment: KinomeScan; type: binding; conditions: read-out: % Control
# T8 construct: purchased DiscoveRx
# T8 sequence (Q00536 whole entry): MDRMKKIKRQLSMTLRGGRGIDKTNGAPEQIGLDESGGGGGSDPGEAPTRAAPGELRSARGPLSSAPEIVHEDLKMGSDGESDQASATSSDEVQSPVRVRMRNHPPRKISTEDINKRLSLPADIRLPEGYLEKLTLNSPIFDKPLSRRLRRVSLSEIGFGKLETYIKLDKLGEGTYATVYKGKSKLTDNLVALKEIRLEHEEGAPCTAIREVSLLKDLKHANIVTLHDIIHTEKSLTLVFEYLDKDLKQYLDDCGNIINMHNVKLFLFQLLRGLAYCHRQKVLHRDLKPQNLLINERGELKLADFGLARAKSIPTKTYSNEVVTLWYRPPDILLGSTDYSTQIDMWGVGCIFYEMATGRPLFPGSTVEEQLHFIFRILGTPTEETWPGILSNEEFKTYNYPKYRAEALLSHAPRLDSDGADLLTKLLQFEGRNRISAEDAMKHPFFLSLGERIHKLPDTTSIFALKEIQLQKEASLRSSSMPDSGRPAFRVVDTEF
# PIK3CA(H1047Y) = target: T9, PIK3CA(H1047Y) (Homo sapiens, UniProt P42336, H1047Y); experiment: KinomeScan; type: binding; conditions: read-out: % Control
# T9 construct: purchased DiscoveRx (Fremont, CA)
# PIM2 = target: T10, PIM2 (Homo sapiens, UniProt Q9P1W9); experiment: KinomeScan; type: binding; conditions: read-out: % Control
# T10 construct: purchased DiscoveRx (Fremont, CA)
# T10 sequence (Q9P1W9 whole entry): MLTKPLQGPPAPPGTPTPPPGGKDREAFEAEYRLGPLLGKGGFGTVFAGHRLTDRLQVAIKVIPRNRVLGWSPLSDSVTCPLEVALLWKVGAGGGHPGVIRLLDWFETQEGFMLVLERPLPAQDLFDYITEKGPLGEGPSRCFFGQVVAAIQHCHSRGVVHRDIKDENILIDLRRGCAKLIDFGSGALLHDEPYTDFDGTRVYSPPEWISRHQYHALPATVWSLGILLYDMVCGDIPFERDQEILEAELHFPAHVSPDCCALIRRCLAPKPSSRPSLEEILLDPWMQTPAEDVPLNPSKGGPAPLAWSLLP
# RIPK1 = target: T11, RIPK1 (Homo sapiens, UniProt Q13546); experiment: KinomeScan; type: binding; conditions: read-out: % Control
# T11 construct: purchased DiscoveRx (Fremont, CA)
# ROS1 = target: T12, ROS1 (Homo sapiens, UniProt P08922); experiment: KinomeScan; type: binding; conditions: read-out: % Control
# T12 construct: purchased DiscoveRx (Fremont, CA)
# TAOK3 = target: T13, TAOK3 (Homo sapiens, UniProt Q9H2K8); experiment: KinomeScan; type: binding; conditions: read-out: % Control
# T13 construct: purchased DiscoveRx (Fremont, CA)
# YANK2 = target: T14, YANK2 (Homo sapiens, UniProt Q9NY57); experiment: KinomeScan; type: binding; conditions: read-out: % Control
# T14 construct: purchased DiscoveRx
# CCK1 = target: T15, CCK1 (Homo sapiens, UniProt P32238); experiment: GPCR Profiler; type: cell-based
# T15 construct: host or cells: Chem-1 cells with promiscuous Gα15
# T15 sequence (P32238 whole entry): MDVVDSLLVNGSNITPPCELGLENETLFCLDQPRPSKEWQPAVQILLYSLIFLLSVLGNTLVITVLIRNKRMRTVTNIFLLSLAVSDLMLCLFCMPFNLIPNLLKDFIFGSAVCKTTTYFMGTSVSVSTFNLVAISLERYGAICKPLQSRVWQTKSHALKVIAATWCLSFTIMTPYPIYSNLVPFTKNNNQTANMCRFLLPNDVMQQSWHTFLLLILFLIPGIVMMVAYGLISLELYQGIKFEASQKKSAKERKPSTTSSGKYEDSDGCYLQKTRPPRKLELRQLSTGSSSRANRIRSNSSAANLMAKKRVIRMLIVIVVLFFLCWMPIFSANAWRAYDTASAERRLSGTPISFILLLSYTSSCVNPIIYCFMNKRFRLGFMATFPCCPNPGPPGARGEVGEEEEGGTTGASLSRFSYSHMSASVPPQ
# D2 = target: T16, D2 (Homo sapiens, UniProt P14416); experiment: GPCR Profiler; type: cell-based
# T16 construct: host or cells: Chem-1 cells with Gα15
# T16 sequence (P14416 whole entry): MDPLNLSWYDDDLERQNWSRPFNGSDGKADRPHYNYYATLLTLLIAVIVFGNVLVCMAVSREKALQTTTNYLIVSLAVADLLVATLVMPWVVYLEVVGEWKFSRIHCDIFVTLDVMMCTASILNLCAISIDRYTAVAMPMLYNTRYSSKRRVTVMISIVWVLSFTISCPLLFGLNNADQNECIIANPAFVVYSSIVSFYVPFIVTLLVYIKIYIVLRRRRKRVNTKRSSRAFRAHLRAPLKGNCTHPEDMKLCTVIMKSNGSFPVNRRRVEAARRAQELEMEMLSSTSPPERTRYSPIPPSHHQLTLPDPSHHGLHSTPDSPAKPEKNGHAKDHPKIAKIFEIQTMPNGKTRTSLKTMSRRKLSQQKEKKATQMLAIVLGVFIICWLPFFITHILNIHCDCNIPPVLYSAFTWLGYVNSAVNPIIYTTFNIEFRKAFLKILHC
# Ghrelin = target: T17, Ghrelin (Homo sapiens, UniProt Q92847); experiment: GPCR Profiler; type: cell-based
# T17 construct: host or cells: Chem-1 cells expressing Gα15
# T17 sequence (Q92847 whole entry): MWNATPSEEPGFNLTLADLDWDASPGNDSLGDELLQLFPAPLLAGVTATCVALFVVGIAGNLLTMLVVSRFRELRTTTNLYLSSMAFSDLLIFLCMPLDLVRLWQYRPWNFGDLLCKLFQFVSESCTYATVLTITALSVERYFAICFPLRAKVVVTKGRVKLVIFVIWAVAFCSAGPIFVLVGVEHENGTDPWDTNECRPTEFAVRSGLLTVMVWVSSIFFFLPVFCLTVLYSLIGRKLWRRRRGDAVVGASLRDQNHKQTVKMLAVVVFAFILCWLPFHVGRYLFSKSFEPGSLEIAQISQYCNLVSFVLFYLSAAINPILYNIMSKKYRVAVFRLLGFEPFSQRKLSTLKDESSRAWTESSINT
# GLP-2 = target: T18, GLP-2 (Homo sapiens, UniProt O95838); experiment: GPCR Profiler; type: cell-based
# T18 construct: host or cells: Chem-1 cells expressing Gα15
# T18 sequence (O95838 whole entry): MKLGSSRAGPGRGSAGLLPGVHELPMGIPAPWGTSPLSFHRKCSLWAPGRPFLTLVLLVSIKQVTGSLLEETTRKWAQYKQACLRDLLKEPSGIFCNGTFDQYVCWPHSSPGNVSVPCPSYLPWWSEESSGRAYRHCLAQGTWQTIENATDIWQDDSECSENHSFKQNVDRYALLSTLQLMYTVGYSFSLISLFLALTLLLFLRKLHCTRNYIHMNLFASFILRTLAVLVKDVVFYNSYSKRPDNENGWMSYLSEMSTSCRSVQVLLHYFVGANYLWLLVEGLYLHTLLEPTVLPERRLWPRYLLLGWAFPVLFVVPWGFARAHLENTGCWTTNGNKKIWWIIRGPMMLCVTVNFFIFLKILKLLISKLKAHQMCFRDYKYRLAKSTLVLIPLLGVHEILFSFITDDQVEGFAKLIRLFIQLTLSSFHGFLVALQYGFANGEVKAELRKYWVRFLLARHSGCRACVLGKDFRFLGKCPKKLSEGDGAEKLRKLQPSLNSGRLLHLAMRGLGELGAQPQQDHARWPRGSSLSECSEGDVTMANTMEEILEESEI
# Lpa1 = Lpa1 (Homo sapiens, UniProt Q92633); experiment: GPCR Profiler; type: cell-based
# Sequence of Lpa1 (Q92633 whole entry, species assumed): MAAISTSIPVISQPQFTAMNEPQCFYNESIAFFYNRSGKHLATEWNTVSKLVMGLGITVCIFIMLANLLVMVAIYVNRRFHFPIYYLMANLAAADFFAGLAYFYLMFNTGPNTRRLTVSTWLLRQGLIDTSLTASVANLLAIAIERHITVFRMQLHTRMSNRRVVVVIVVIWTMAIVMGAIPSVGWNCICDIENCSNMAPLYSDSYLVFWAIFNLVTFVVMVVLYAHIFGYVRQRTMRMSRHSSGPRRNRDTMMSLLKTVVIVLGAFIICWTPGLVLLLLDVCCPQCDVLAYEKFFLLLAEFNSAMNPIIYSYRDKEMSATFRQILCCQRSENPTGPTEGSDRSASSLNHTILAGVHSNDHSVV
# M2 = target: T19, M2 (Homo sapiens, UniProt P08172); experiment: GPCR Profiler; type: cell-based
# T19 construct: host or cells: Chem-1 cells with promiscuous Gα15
# T19 sequence (P08172 whole entry): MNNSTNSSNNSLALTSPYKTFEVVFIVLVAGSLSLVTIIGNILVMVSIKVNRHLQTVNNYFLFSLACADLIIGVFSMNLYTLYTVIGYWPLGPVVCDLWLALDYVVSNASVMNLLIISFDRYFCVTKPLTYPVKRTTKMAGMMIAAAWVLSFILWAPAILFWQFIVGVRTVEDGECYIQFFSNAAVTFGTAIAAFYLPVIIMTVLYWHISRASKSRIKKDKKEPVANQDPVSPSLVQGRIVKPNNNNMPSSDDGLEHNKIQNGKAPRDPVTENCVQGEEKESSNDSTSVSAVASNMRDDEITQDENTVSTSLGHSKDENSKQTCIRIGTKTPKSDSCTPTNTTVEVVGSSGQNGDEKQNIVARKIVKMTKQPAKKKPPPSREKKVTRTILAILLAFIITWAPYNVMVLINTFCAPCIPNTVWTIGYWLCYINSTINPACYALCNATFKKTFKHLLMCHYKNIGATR
compound,measurement,setting,value
CCc1ccc2c(c1)C1(NN=C(c3ccccc3)S1)C(=O)N2 (centres unmarked) [OGM2],coefficient of drug interaction (CDI),PDX 08-387 cells,< 0.7
same,Mucin production,A549,inhibits Mucin production
"CCc1ccc2c(c1)C1(NN=C(c3cccc4ccccc34)S1)C(=O)N2 (centres unmarked) [OGM1, 5-ethyl-5′-naphthalen-1-ylspiro[1H-indole-3,2′-3H-1,3,4-thiadiazole]-2-one]",remaining binding at 10 µM,ADCK4,70%
same,remaining binding at 10 µM,BRK,100%
same,remaining binding at 10 µM,CDC2L1,92%
same,% Control,FLT3(ITD),100%
same,remaining binding at 10 µM,FLT4,100%
same,remaining binding at 10 µM,LATS2,100%
same,remaining binding at 10 µM,MAPKAPK2,100%
same,remaining binding at 10 µM,MET(M1250T),68%
same,remaining binding at 10 µM,PCTK1,77%
same,remaining binding at 10 µM,PIK3CA(H1047Y),59%
same,remaining binding at 10 µM,PIM2,84%
same,remaining binding at 10 µM,RIPK1,100%
same,remaining binding at 10 µM,ROS1,100%
same,remaining binding at 10 µM,TAOK3,79%
same,remaining binding at 10 µM,YANK2,100%
same,Antagonism,CCK1; 10 uM,1.9
same,Agonism,CCK1; 12.5 uM,0.8
same,Antagonism,D2; 10 uM,11.4
same,Agonism,D2; 12.5 uM,−0.5
same,Antagonism,Ghrelin; 10 uM,−6.1
same,Agonism,Ghrelin; 12.5 uM,0.3
same,Antagonism,GLP-2; 10 uM,2.1
same,Agonism,GLP-2; 12.5 uM,−0.2
same,Antagonism,Lpa1; 10 uM,89.5
same,Agonism,Lpa1; 12.5 uM,0.5
same,Antagonism,M2; 10 uM,3.3
same,Agonism,M2; 12.5 uM,−0.1

# From US20240327364A1, “THERAPEUTIC TARGETING OF GPR68 TO INDUCE FERROPTOSIS” (University Of Maryland, Baltimore, priority 2023, published 2024)
